The supplement of paper PMC10307832

What was measured:
Experiment in all cases: relative viability (nuclei count vs DMSO), 5 days (fraction); higher = more cells survive
Doxorubicin + Olaparib = compound: COc1cccc2c1C(=O)c1c(O)c3c(c(O)c1C2=O)C[C@@](O)(C(=O)CO)C[C@@H]3O[C@H]1C[C@H](N)[C@H](O)[C@H](C)O1 [Doxorubicin] + O=C(c1cc(Cc2n[nH]c(=O)c3ccccc23)ccc1F)N1CCN(C(=O)C2CC2)CC1 [Olaparib] (partner 8 µM)
How it was run: (§1)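 Lung cancer cell lines were pin-tool dosed in 1536-well plates on the day after seeding, with either a lone drug or a fixed anchor-drug dose plus five library-drug doses (not always all listed) in √10 steps. Nuclei were counted on 4× images after 5 days. Relative viability is the ratio of treated-well to vehicle-well nuclei counts, with each value a median of duplicate plates.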

Doxorubicin + Tozasertib = compound: COc1cccc2c1C(=O)c1c(O)c3c(c(O)c1C2=O)C[C@@](O)(C(=O)CO)C[C@@H]3O[C@H]1C[C@H](N)[C@H](O)[C@H](C)O1 [Doxorubicin] + Cc1cc(Nc2cc(N3CCN(C)CC3)nc(Sc3ccc(NC(=O)C4CC4)cc3)n2)n[nH]1 [Tozasertib] (partner 0.1 µM)
How it was run: as §1

BAY61-3606 + Foretinib = compound: COC1=C(C=C(C=C1)C2=CC3=NC=CN3C(=N2)NC4=C(C=CC=N4)C(=O)N)OC [BAY61-3606] + COc1cc2c(Oc3ccc(NC(=O)C4(C(=O)Nc5ccc(F)cc5)CC4)cc3F)ccnc2cc1OCCCN1CCOCC1 [Foretinib] (partner 0.25 µM)
How it was run: as §1

BAY61-3606 + Pictilisib = compound: COC1=C(C=C(C=C1)C2=CC3=NC=CN3C(=N2)NC4=C(C=CC=N4)C(=O)N)OC [BAY61-3606] + CS(=O)(=O)N1CCN(Cc2cc3nc(-c4cccc5[nH]ncc45)nc(N4CCOCC4)c3s2)CC1 [Pictilisib] (partner 1 µM)
How it was run: as §1

Cell Line	relative viability (Doxorubicin + Olaparib; first compound 0.001 µM)	relative viability (Doxorubicin + Olaparib; first compound 0.003162 µM)	relative viability (Doxorubicin + Olaparib; first compound 0.01 µM)	relative viability (Doxorubicin + Olaparib; first compound 0.03162 µM)	relative viability (Doxorubicin + Olaparib; first compound 0.1 µM)	relative viability (Doxorubicin + Tozasertib; first compound 0.001 µM)	relative viability (Doxorubicin + Tozasertib; first compound 0.003162 µM)	relative viability (Doxorubicin + Tozasertib; first compound 0.01 µM)	relative viability (Doxorubicin + Tozasertib; first compound 0.03162 µM)	relative viability (Doxorubicin + Tozasertib; first compound 0.1 µM)	relative viability (BAY61-3606 + Foretinib; first compound 0.02 µM)	relative viability (BAY61-3606 + Foretinib; first compound 0.06325 µM)	relative viability (BAY61-3606 + Foretinib; first compound 0.6325 µM)	relative viability (BAY61-3606 + Foretinib; first compound 2 µM)	relative viability (BAY61-3606 + Pictilisib; first compound 0.02 µM)	relative viability (BAY61-3606 + Pictilisib; first compound 0.06325 µM)	relative viability (BAY61-3606 + Pictilisib; first compound 0.2 µM)	relative viability (BAY61-3606 + Pictilisib; first compound 0.6325 µM)	relative viability (BAY61-3606 + Pictilisib; first compound 2 µM)	relative viability (BAY61-3606 + Foretinib; first compound 0.2 µM)
NCI-H1648	0.618	1.05	0.5	0.492	0.791	0.55	0.471	0.348	0.304	0.456										
NCI-H1793		0.93	0.759	0.566	0.88		0.403	0.348	0.286	0.358	0.79	0.674	0.692	0.476	0.434	0.381	0.303	0.352	0.434	
SK-LU-1	0.512	0.451	0.397	0.359	0.356	0.318	0.326	0.288	0.173	0.179	0.863	0.863	0.758	0.408	0.628	0.498	0.662	0.515	0.428	0.745
HCC-44	0.929	1	0.997	1.01	0.993	0.767	0.882	0.797	0.284	0.321					0.581	0.651	0.634	0.684	0.561	
201T	0.849	0.825	0.837	0.856	0.831	0.924	0.955	0.949	0.927	0.924	1.19	1.05	1.17	1.11	0.716	0.677	0.761	0.703	0.744	1.13
HOP-62	0.396	0.56	0.365	0.42	0.296	0.376	0.414	0.402	0.352	0.405	1.05	1.04	1.13	0.815	0.68		0.582	0.783	0.53	1.1
NCI-H838	0.795	0.759	0.702	0.337	0.279	0.281	0.306	0.261	0.274	0.226	0.973	0.991	1.06	0.955	0.568	0.432	0.601	0.523	0.324	0.947
NCI-H2085	0.788	0.825	0.828	0.92	0.775	0.815	0.829	0.919	0.796	0.829	1.07	0.947	0.871	0.917	0.376	0.487	0.499	0.459	0.601	0.995
NCI-H661	0.674	0.881	0.681	0.542	0.52	0.37	0.354	0.349	0.339	0.388	1.06	1.05	1.02	0.941	0.422	0.415	0.376	0.383	0.408	0.99
NCI-H23	0.356	0.373	0.293	0.334	0.32		0.452	0.362	0.389	0.397	1.05	0.907	1.03	0.874	0.743	0.522	0.49	0.522	0.382	1.01
A-427	0.764	0.672	0.718	0.373	0.285	0.241	0.215	0.183	0.238	0.213	1.16	1.01	1.24	0.925	0.846	0.709	0.744	0.751	0.646	1.04
NCI-H647	0.503	0.47	0.48	0.0818	0.124	0.305	0.181	0.431	0.18	0.125	1.24	1.1	1.27	0.878	0.622	0.297	0.435	0.404	0.365	1.14
NCI-H1734	0.294	0.689	0.644	0.435	0.565	0.48	0.275	0.292	0.238	0.249	0.825	0.79	0.836	0.411	0.46	0.459	0.485	0.406	0.324	0.743
NCI-H1915	0.256	0.258	0.249	0.311	0.27	0.481	0.439	0.452	0.41	0.437	1.06	1.09	1.13	0.613	0.999	0.99	0.739	0.884	0.685	1.07
Calu-6	0.554	0.536	0.457	0.298	0.197						0.894	0.905	0.773	0.617	0.963	1.01	0.957	0.932	0.659	0.793
NCI-H441	0.545	0.518	0.511	0.235	0.239		0.612	0.511	0.249	0.245	0.979	1.12	0.862	0.754	0.561	0.529	0.493	0.475	0.282	1.15

Cell Line	relative viability (Doxorubicin + Olaparib; first compound 0.001 µM)	relative viability (Doxorubicin + Olaparib; first compound 0.003162 µM)	relative viability (Doxorubicin + Olaparib; first compound 0.01 µM)	relative viability (Doxorubicin + Olaparib; first compound 0.03162 µM)	relative viability (Doxorubicin + Olaparib; first compound 0.1 µM)	relative viability (Doxorubicin + Tozasertib; first compound 0.001 µM)	relative viability (Doxorubicin + Tozasertib; first compound 0.003162 µM)	relative viability (Doxorubicin + Tozasertib; first compound 0.01 µM)	relative viability (Doxorubicin + Tozasertib; first compound 0.03162 µM)	relative viability (Doxorubicin + Tozasertib; first compound 0.1 µM)	relative viability (BAY61-3606 + Foretinib; first compound 0.02 µM)	relative viability (BAY61-3606 + Foretinib; first compound 0.06325 µM)	relative viability (BAY61-3606 + Foretinib; first compound 0.6325 µM)	relative viability (BAY61-3606 + Foretinib; first compound 2 µM)	relative viability (BAY61-3606 + Pictilisib; first compound 0.02 µM)	relative viability (BAY61-3606 + Pictilisib; first compound 0.06325 µM)	relative viability (BAY61-3606 + Pictilisib; first compound 0.2 µM)	relative viability (BAY61-3606 + Pictilisib; first compound 0.6325 µM)	relative viability (BAY61-3606 + Pictilisib; first compound 2 µM)	relative viability (BAY61-3606 + Foretinib; first compound 0.2 µM)
HCC-366	0.33	0.348	0.361	0.209	0.25		0.156	0.179	0.106	0.158	0.934	0.942	0.924	0.893	0.188	0.138	0.107	0.156	0.116	0.93
EMC-BAC-2	0.487	0.367	0.355	0.317	0.302	0.321	0.26	0.308	0.25	0.216	1.1	0.992	1.11	0.738	0.602	0.522	0.47	0.632	0.527	1.02
LK-2	0.713	0.672	0.585	0.604	0.653	0.153	0.156	0.134	0.177	0.19	1.24	1.19	1.32	0.768	0.594	0.423	0.614	0.758	0.532	1
NCI-H2228	0.579	0.717	0.682	0.249	0.179	0.276	0.269	0.21	0.125	0.107	0.891	0.914	0.858	0.645	0.432	0.34	0.421	0.505	0.341	0.714
NCI-H460	0.366	0.419	0.346	0.114	0.0883	0.419	0.388	0.264	0.185	0.165	1.05	1	0.973	0.945	0.433	0.353	0.319	0.35	0.377	1.05
NCI-H1299	0.937	0.949	0.952	0.942	0.753						1.12	1.07	1.03	1.07	0.822	0.854	0.844	0.918	0.503	1.11
IA-LM	0.796	0.889	0.954	0.754	0.673						1.23	1.09	1.13	0.959	0.351	0.393	0.442	0.54	0.496	1.01
NCI-H1563											1.03	0.99	0.931	0.847	0.621	0.579	0.731	0.654	0.653	0.893
NCI-H1703	0.377	0.332	0.309	0.222	0.177						0.337		0.316	0.346	0.27	0.233	0.241	0.256	0.214	0.315
SW 900		1.16	0.894	0.674	0.868	0.543	0.491	0.596	0.456	0.231	0.826	0.949	1.11	0.586						0.571
NCI-H1792	0.506	0.473	0.473	0.412	0.548										0.293	0.176	0.328	0.363	0.303	
A549		0.437	0.375	0.275	0.264						1.11	0.989	0.969	0.809	0.585	0.566	0.532	0.572	0.436	0.853
NCI-H2342	0.41	0.525	0.445	0.371	0.384	0.528	0.506	0.545	0.508	0.625	1.03	1.05	1.22	0.957						1.02
NCI-H1623						0.489	0.426	0.417	0.39	0.445	0.841	0.919	0.864	0.846						0.896
NCI-H522	0.524	0.658	0.678	0.638	0.589	0.581	0.577	0.512	0.488	0.609										
EBC-1	0.682	0.735	0.73	0.54	0.284						0.105	0.0977	0.0956	0.102	0.463	0.359	0.404	0.547	0.411	0.0899
